The text below walks through data of patent US4933332A, “11-desoxy-17-α-hydroxycorticosterone derivatives” (priority 1988, dated 1990).

Structures can show the parent of a compound that is named as a salt.

The subject of one series is mice fibroblasts L-929. The conditions noted are these: effects are reversible; cited from earlier work.
The next series relates to cell receptors. The conditions noted are these: effects are reversible; cited from earlier work.
For another series, the system named is Hepatoma G-61. The experiment in a line: Antitumor effect on grafted hepatoma G-61. The series is classed as in vivo, mice and rats.
Series [1] concerns adrenalectomized rat youngsters. The experiment in a line: Lifespan of adrenalectomized rat youngsters (biological test for the glucocorticoidal activity). The series is classed as in vivo. The conditions noted are these: 25-days adrenalectomized rats.
Series [2] deals with Large intestine adenocarcinoma AKATOL. As to the kind of experiment: Antitumor effect on grafted large intestine adenocarcinoma AKATOL. The series is classed as in vivo, mice and rats.
A further series has as its system Hepatoma G-60. The experiment in a line: Antitumor effect on grafted hepatoma G-60. The format is in vivo, mice and rats.
A further series has as its system S-37. The experiment in a line: Antitumor effect on grafted solid tumor S-37. The series is classed as in vivo, mice and rats.
For series [3], the system named is Viral leukosis Mazurenko LMC-1. The experiment in a line: Antitumor effect on grafted hemoblastoses (LMC-1), extension of lifespan. The format is in vivo, mice and rats. Particulars: LMC-1; days 2-6 after grafting; effective dose range per compound, 24 h × 5.
Series [4] concerns Alveolar mammary cancer RMK-1. As to the kind of experiment: Antitumor effect on grafted alveolar mammary cancer RMK-1. The format is in vivo, mice and rats.
In a further series the test system is Lewis lung carcinoma LL. The experiment in a line: Antitumor effect on grafted Lewis lung carcinoma LL. The format is in vivo, mice and rats.
The next series concerns Hepatoma G-22c. The experiment in a line: Antitumor effect on grafted hepatoma G-22c. The series is classed as in vivo, mice and rats. Particulars: G-22c; days 2-6; effective dose range per compound, 24 h × 5.
For another series, the system named is L 1210. The experiment in a line: Antitumor effect on grafted hemoblastoses (L 1210), extension of lifespan. The format is in vivo, mice and rats.
The next series relates to MOPG-406. The experiment in a line: Antitumor effect on grafted hemoblastoses (MOPC-406), extension of lifespan. The format is in vivo, mice and rats.
The next series has as its system P-388. As to the kind of experiment: Antitumor effect on grafted hemoblastoses (P-388), extension of lifespan. The format is in vivo, mice and rats.
For another series, the system named is Ca-755. The experiment in a line: Antitumor effect on grafted solid tumor Ca-755. The format is in vivo, mice and rats.
The next series has as its system La. Also on record: species or system mice and rats. Particulars: in vivo.
A short description of the next series: in vivo. The conditions noted are these: mouse.
Another series deals with mice. The conditions noted are these: mouse, in vivo.
The test system of another series is S-180. Details: species or system mice and rats. Particulars: in vivo.
The conditions of series [5]: cited from earlier work.

Take `CC1(C)O[C@@H]2C[C@H]3[C@@H]4CCC5=CC(=O)C=C[C@]5(C)[C@@]4(F)[C@@H](O)C[C@]3(C)[C@]2(C(=O)COC(=O)N(CCCl)CCCl)O1` [9αF,11β,16α, 17α,26-tetraoxypregna-1,4-diene-3,20-dione-21-[bis-(2-chloroethyl)carbamate], 16,17-acetonide]: the “growth of cultures of mice fibroblasts L-929” value in the series on mice fibroblasts L-929 is “inhibit growth of cultures of mice fibroblasts L-929”. Besides, in the series on cell receptors, the “reaction with cell receptors” value is reported as “react with cell receptors”.

Take `C[C@]12CCC(=O)C=C1CC[C@@H]1[C@@H]2CC[C@@]2(C)[C@H]1CC[C@]2(O)C(=O)CO` [11-Desoxy-17α-hydroxycorticosterone, 11-desoxy-17α-hydroxycorticosterone, reference compound]: the “Maximum tumor growth inhibition” value in the series on Hepatoma G-61 (G-61, days 7-11, effective dose range per compound, 24 h × 5) was 37%; in series [2] (AKATOL, days 2-6, effective dose range per compound, 24 h × 5, "+" = stimulation of tumor growth) it was “+41%”; in the series with Hepatoma G-60 (G-60, days 6-10, effective dose range per compound, 24 h × 5) it was 38%; in the series with S-37 (S-37, days 2-6, effective dose range per compound, 24 h × 5) it was 29%; in series [4] (RMK-1, days 3-7, effective dose range per compound, 24 h × 5, "+" = stimulation of tumor growth) it was “+4%”; in the series with Lewis lung carcinoma LL (LL, days 2-6, effective dose range per compound, 24 h × 5), 28%. Besides, the “Maximum tumor growth inhibition” value in the series on Hepatoma G-22c is listed as 3%; in the series on Ca-755 (Ca-755, days 2-6, effective dose range per compound, 24 h × 5, "+" = stimulation of tumor growth), “+105%”. The “extension of lifespan of adrenalectomized rat youngsters” value in [1] is recorded as 115%. The “Extension of the lifespan of the animals (ELA)” value in series [3] is recorded as 17%; in the series with L 1210 (L 1210, days 2-6 after grafting, effective dose range per compound, 24 h × 5), 6%; in the series with MOPG-406 (MOPG-406, days 2-6 after grafting, effective dose range per compound, 24 h × 5) it was 0%; with P-388 (P-388, days 2-6 after grafting, effective dose range per compound, 24 h × 5) it was -7%.

Regarding `C[C@]12CCC(=O)C=C1CC[C@@H]1[C@@H]2CC[C@@]2(C)[C@H]1CC[C@]2(O)C(=O)COC(=O)CCCc1ccc(N(CCCl)CCCl)cc1` [11-desoxy-17α-hydroxy-21-[p-di(2-chloroethyl)aminophenylbutyrate] corticosterone], the “Extension of the lifespan of the animals (ELA)” value with La was determined as 18%; with L 1210 (in vivo), 20%; with MOPG-406 (in vivo), 70%; with P-388 (in vivo) it was 82%. Moreover, in “in vivo”, the MTD came to 350 mg/kg. Also, in the series on mice, the “toxicity (relative)” value is on record as “even lower toxicity”.

In the case of `C[C@]12CCC(=O)C=C1CC[C@@H]1[C@@H]2[C@@H](O)C[C@@]2(C)[C@H]1CC[C@]2(O)C(=O)COC(=O)N(CCCl)CCCl` [11β,17α,21-trihydroxy-pregnene-4-3,20-dione-21-[bis(2-chloroethyl)carbamate]], the “growth of cultures of mice fibroblasts L-929” value with mice fibroblasts L-929 is “inhibit growth of cultures of mice fibroblasts L-929”. Besides, in the series with cell receptors, the “reaction with cell receptors” value was “react with cell receptors”.

On to `O=C(O)CCCc1ccc(N(CCCl)CCCl)cc1` [Chlorambucyl, p-di-(2-chloroethyl)aminophenylbutyric acid, reference compound], for which the MTD in the series “in vivo” is 25 mg/kg.

In the case of `C[C@]12CC[C@@H]3c4ccc(OC(=O)N(CCCl)CCCl)cc4CC[C@H]3[C@@H]1CC[C@@H]2OP(=O)(O)O` [Estracyte, estra-1,3,5-(10)treine-3,17β-diol-3N-[bis-(2-chloroethyl)carbamate-17-sodium phosphate, reference compound], the “Maximum tumor growth inhibition” value with S-180 is given as “+23%”; in the series on S-37 (in vivo), 85%; in the series with Lewis lung carcinoma LL (in vivo), 29%; with Ca-755 (in vivo), “+6%”.

With `C[C@]12C=CC(=O)C=C1CC[C@@H]1[C@@H]2[C@@H](O)C[C@@]2(C)[C@H]1CC[C@]2(O)C(=O)COC(=O)CCCc1ccc(N(CCCl)CCCl)cc1` [Prednimustine, pregna-1,4-diene-3,20-dione, 11β17,21-trihydroxy-21-[p-di(2-chloroethyl)aminophenylbutyrate]], in series [5] (in vivo), the hematotoxicity entry was “Hematotoxicity usually limiting administration”. Further, in series [5] (oncological clinic), the side effects result is reported as “associated mainly with hematotoxicity”.

For `C[C@]12C=CC(=O)C=C1CC[C@@H]1[C@@H]2[C@@H](O)C[C@@]2(C)[C@H]1CC[C@]2(O)C(=O)CO` [Prednisolone, pregnadiene-1,4-triol-11β,17α,21-dione-3,20, reference compound], the “Maximum tumor growth inhibition” value with Hepatoma G-61 (in vivo) is on record as 44%; in [2] (in vivo) it was 67%; in the series with S-37 (in vivo) it was 44%; in the series with Lewis lung carcinoma LL (in vivo), 30%; in the series on Ca-755 (in vivo), 70%.

Take `NC(Cc1ccc(N(CCCl)CCCl)cc1)C(=O)O` (stereo not drawn) [Sarcolysine, β-[p-di(2-chloroethyl)aminophenyl]-α-alanine hydrochloride, reference compound]: the “Maximum tumor growth inhibition” value with Hepatoma G-61 (in vivo) is recorded as 87%; in [2] (in vivo), 56%; with S-180, 76%; with Hepatoma G-60 (in vivo), 90%; with S-37 (in vivo), 95%; in series [4] (in vivo), “+86%”. The “Maximum tumor growth inhibition” value in the series on Lewis lung carcinoma LL (in vivo) was 58%; in the series on Ca-755 (in vivo) it was 83%.
